The structures appear in SMILES notation.

Assay [1] deals with MIA PaCa-2 (human pancreatic carcinoma) cells. The assay can be described thus: Cell Viability Assay (CellTiter-Glo), MIA PaCa-2. The assay is classed as cell-based. The conditions noted are these: Homo sapiens, MIA PaCa-2, 72 h. The procedure: Serially-diluted compound or DMSO was added to the cells, and plates were incubated at 37° C., 5% CO2 for 72 h. Cell viability was measured using a CellTiter-Glo® Luminescent Cell Viability Assay kit (Promega) according to the manufacturer's protocol. The luminescence signal of treated samples was normalized to DMSO control, and data were analyzed using a 4-parameter logistic model to calculate IC50 values.
A general note: Cellular ATP, detected with luciferase, serves as a proxy for viable cell number.

The target of another assay is KRAS G12C (Homo sapiens (Human), UniProt P01116, C118A/G12C). Description: 2 h coupled exchange assay. In kind it is biochemical. To be noted: Avg 2 h Coupled exchange IC50, 2 h compound pre-incubation. The procedure:
The term “2 h coupled exchange assay” or “20 h coupled exchange assay” as used herein refers to the assay described in the Section entitled “BIOLOGICAL EVALUATION.”

The test system of assay [2] is A549 (human lung carcinoma) cells. Description: Cell Viability Assay (CellTiter-Glo), A549. The assay is classed as cell-based. The conditions noted are these: Homo sapiens, A549, 72 h. The method, boiled down:
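MIA PaCa-2 or A549 cells in RPMI 1640 with 10% FBS were seeded at 1.67E+04 cells/mL and incubated overnight. Serially diluted compound was then added for 72 h at 37° C, 5% CO2. Viability read by CellTiter-Glo luminescence, normalized to DMSO, with IC50 from a 4-parameter logistic fit.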

KRAS G12C, sequence (P01116 other isoform, or with tags, fused parts or gaps G12C/C118A): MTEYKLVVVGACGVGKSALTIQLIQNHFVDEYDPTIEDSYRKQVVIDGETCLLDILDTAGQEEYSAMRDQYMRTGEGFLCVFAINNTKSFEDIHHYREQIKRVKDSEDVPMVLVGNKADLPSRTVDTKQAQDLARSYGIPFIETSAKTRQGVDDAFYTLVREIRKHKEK

`C=CC(=O)N1CC2(CCN(c3nc4c(c(-c5cccc6cc(O)ccc56)c3C)CCN(C(C)C)C4)C2)C1` [Example 18-1, 1-(6-(4-(6-Hydroxy-1-naphthalenyl)-3-methyl-7-(2-propanyl)-5,6,7,8-tetrahydro-1,7-naphthyridin-2-yl)-2,6-diazaspiro[3.4]octan-2-yl)-2-propen-1-one]: the IC50 (commonly the midpoint of a concentration-inhibition curve) in assay [1] is 23 nM; against KRAS G12C it was 37 nM; in assay [2] it was > 5000 nM.

As for `C=CC(=O)N1CC2(CCN(c3nc4c(c(-c5c(C)ccc6[nH]ncc56)c3C)CCN(C(C)C)C4)C2)C1` [Example 18-2, 1-(6-(3-methyl-4-(5-methyl-1H-indazol-4-yl)-7-(2-propanyl)-5,6,7,8-tetrahydro-1,7-naphthyridin-2-yl)-2,6-diazaspiro[3.4]octan-2-yl)-2-propen-1-one], the IC50 is 93 nM in assay [1], 268 nM against KRAS G12C and > 5000 nM in assay [2].

As to `C=CC(=O)N1CC2(CCN(c3nc4c(c(-c5cc(O)cc6ccccc56)c3C)CCN(C(C)C)C4)C2)C1` [Example 18-3, 1-(6-(4-(3-hydroxy-1-naphthalenyl)-3-methyl-7-(2-propanyl)-5,6,7,8-tetrahydro-1,7-naphthyridin-2-yl)-2,6-diazaspiro[3.4]octan-2-yl)-2-propen-1-one], the IC50 in assay [1] was 137 nM; at KRAS G12C, 229 nM; in assay [2], > 5000 nM.

For the compound `C=CC(=O)N1CC2(CCN(c3nc4c(c(-c5cccc6c5NCCC6)c3C)CCN(C(C)C)C4)C2)C1` [Example 18-5, 1-(6-(3-methyl-7-(2-propanyl)-4-(1,2,3,4-tetrahydro-8-quinolinyl)-5,6,7,8-tetrahydro-1,7-naphthyridin-2-yl)-2,6-diazaspiro[3.4]octan-2-yl)-2-propen-1-one], the results for the IC50 (in assay [1]; against KRAS G12C; in assay [2]) were 546 nM, 990 nM and 15300 nM, respectively.

On to `C=CC(=O)N1CC2(CCN(c3nc4c(c(-c5cccc6cc(O)ccc56)c3C)CCN(C)C4)C2)C1` [Example 18-6, 1-(6-(4-(6-hydroxy-1-naphthalenyl)-3,7-dimethyl-5,6,7,8-tetrahydro-1,7-naphthyridin-2-yl)-2,6-diazaspiro[3.4]octan-2-yl)-2-propen-1-one], for which the IC50 in assay [1] was 70 nM; at KRAS G12C it was 80 nM; in assay [2], > 5000 nM.

For the compound `C=CC(=O)N1CC2(CCN(c3nc4c(c(-c5cccc6cc(O)ccc56)c3C)CCN(C3COC3)C4)C2)C1` [Example 18-7, 1-(6-(4-(6-hydroxy-1-naphthalenyl)-3-methyl-7-(3-oxetanyl)-5,6,7,8-tetrahydro-1,7-naphthyridin-2-yl)-2,6-diazaspiro[3.4]octan-2-yl)-2-propen-1-one], the results for the concentration for half-maximal inhibition (IC50) (in assay [1]; at KRAS G12C; in assay [2]) were 64 nM, 71 nM and > 5000 nM, respectively.

For `C=CC(=O)N1CC2(CCN(c3nc4c(c(-c5cccc6cc(O)ccc56)c3C)CCN(C(C)COC)C4)C2)C1` [Example 18-8, 1-(6-(4-(6-hydroxy-1-naphthalenyl)-7-((2R)-1-methoxy-2-propanyl)-3-methyl-5,6,7,8-tetrahydro-1,7-naphthyridin-2-yl)-2,6-diazaspiro[3.4]octan-2-yl)-2-propen-1-one|1-(6-(4-(6-hydroxy-1-naphthalenyl)-7-((2S)-1-methoxy-2-propanyl)-3-methyl-5,6,7,8-tetrahydro-1,7-naphthyridin-2-yl)-2,6-diazaspiro[3.4]octan-2-yl)-2-propen-1-one], the IC50 was 170 nM in assay [1], 47 nM against KRAS G12C and > 5000 nM in assay [2].

For `C=CC(=O)N1CC2(CCN(c3nc4c(c(-c5cc(O)ccc5Cl)c3C)CCN(C(C)C)C4)C2)C1` [Example 18-9, 1-(6-(4-(2-chloro-5-hydroxyphenyl)-3-methyl-7-(2-propanyl)-5,6,7,8-tetrahydro-1,7-naphthyridin-2-yl)-2,6-diazaspiro[3.4]octan-2-yl)-2-propen-1-one], the IC50 in assay [1] is 316 nM; against KRAS G12C it was 419 nM; in assay [2], > 5000 nM.

In the case of `C=CC(=O)N1CC2(CCN(c3nc4c(c(-c5cccc6cc(O)ccc56)c3C)CCN(C(C)=O)C4)C2)C1` [Example 18-10, 1-(6-(7-acetyl-4-(6-hydroxy-1-naphthalenyl)-3-methyl-5,6,7,8-tetrahydro-1,7-naphthyridin-2-yl)-2,6-diazaspiro[3.4]octan-2-yl)-2-propen-1-one], the IC50 is 381 nM in assay [1], 260 nM on KRAS G12C and > 5000 nM in assay [2].

As to `C=CC(=O)N1CC2(CCN(c3nc4c(c(-c5cc(O)ccc5Cl)c3C)CCN(C3CCCN(C)C3)C4)C2)C1` [Example 18-11, 1-(6-(4-(2-chloro-5-hydroxyphenyl)-3-methyl-7-((3R)-1-methyl-3-piperidinyl)-5,6,7,8-tetrahydro-1,7-naphthyridin-2-yl)-2,6-diazaspiro[3.4]octan-2-yl)-2-propen-1-one|1-(6-(4-(2-chloro-5-hydroxyphenyl)-3-methyl-7-((3S)-1-methyl-3-piperidinyl)-5,6,7,8-tetrahydro-1,7-naphthyridin-2-yl)-2,6-diazaspiro[3.4]octan-2-yl)-2-propen-1-one], the values for the half-inhibitory concentration (IC50) (in assay [1]; against KRAS G12C; in assay [2]) were 174 nM, 167 nM and > 5000 nM, respectively.

With `C=CC(=O)N1CC2(CCN(c3nc4c(c(-c5ccc(F)cc5F)c3C)CCN(c3scnc3C)C4)C2)C1` [Example 18-12, 1-(6-(4-(2,4-difluorophenyl)-3-methyl-7-(4-methyl-1,3-thiazol-5-yl)-5,6,7,8-tetrahydro-1,7-naphthyridin-2-yl)-2,6-diazaspiro[3.4]octan-2-yl)-2-propane-1-one], the IC50 in assay [1] stood at 335 nM; against KRAS G12C, 172 nM; in assay [2], 12500 nM.

Take `C=CC(=O)N1CC2(CCN(c3nc4c(c(-c5cc(O)ccc5F)c3C)CCN(c3scnc3C)C4)C2)C1` [Example 18-13, 1-(6-(4-(2-fluoro-5-hydroxyphenyl)-3-methyl-7-(4-methyl-1,3-thiazol-5-yl)-5,6,7,8-tetrahydro-1,7-naphthyridin-2-yl)-2,6-diazaspiro[3.4]octan-2-yl)-2-propen-1-one]: the IC50 in assay [1] is 89 nM; at KRAS G12C, 86 nM; in assay [2], > 5000 nM.

Turning to `C=CC(=O)N1CC2(CCN(c3nc4c(c(-c5c(C)ccc6[nH]ncc56)c3C)CCN(C3COC3)C4)C2)C1` [Example 18-14, 1-(6-(3-methyl-4-(5-methyl-1H-indazol-4-yl)-7-(3-oxetanyl)-5,6,7,8-tetrahydro-1,7-naphthyridin-2-yl)-2,6-diazaspiro[3.4]octan-2-yl)-2-propen-1-one], the IC50 was 167 nM in assay [1], 376 nM at KRAS G12C and > 25000 nM in assay [2].

As to `C=CC(=O)N1CC2(CCN(c3nc4c(c(-c5c(F)ccc6[nH]ncc56)c3C)CCN(C(C)C)C4)C2)C1` [Example 18-15, 1-(6-(4-(5-fluoro-1H-indazol-4-yl)-3-methyl-7-(2-propanyl)-5,6,7,8-tetrahydro-1,7-naphthyridin-2-yl)-2,6-diazaspiro[3.4]octan-2-yl)-2-propen-1-one], the values for the IC50 (in assay [1]; at KRAS G12C; in assay [2]) were 230 nM, 720 nM and > 25000 nM, respectively.

Regarding `C=CC(=O)N1CC2(CCN(c3nc4c(c(-c5c(C)ccc6[nH]ncc56)c3C)CCN(C3CC3)C4)C2)C1` [Example 18-16, 1-(6-(7-cyclopropyl-3-methyl-4-(5-methyl-1H-indazol-4-yl)-5,6,7,8-tetrahydro-1,7-naphthyridin-2-yl)-2,6-diazaspiro[3.4]octan-2-yl)-2-propen-1-one], the IC50 is 188 nM in assay [1], 355 nM on KRAS G12C and > 5000 nM in assay [2].

As to `C=CC(=O)N1CC2(CCN(c3nc4c(c(-c5cccc6cc(O)ccc56)c3C)CCN(C3CC3)C4)C2)C1` [Example 18-17, 1-(6-(7-cyclopropropyl-4-(6-hydroxy-1-naphthalenyl)-3-methyl-5,6,7,8-tetrahydro-1,7-naphthyridin-2-yl)-2,6-diazaspiro[3.4]octan-2-yl)-2-propen-1-one], the IC50 is 133 nM in assay [1], 79 nM at KRAS G12C and > 5000 nM in assay [2].

For the compound `C=CC(=O)N1CC2(CCN(c3nc4c(c(-c5cccc6cc(O)ccc56)c3C)CCN(CC(O)C(F)(F)F)C4)C2)C1` [Example 18-18, 1-(6-(4-(6-hydroxy-1-naphthalenyl)-3-methyl-7-((2R)-3,3,3-trifluoro-2-hydroxypropyl)-5,6,7,8-tetrahydro-1,7-naphthyridin-2-yl)-2,6-diazaspiro[3.4]octan-2-yl)-2-propen-1one|1-(6-(4-(6-hydroxy-1-naphthalenyl)-3-methyl-7-((2S)-3,3,3-trifluoro-2-hydroxypropyl)-5,6,7,8-tetrahydro-1,7-naphthyridin-2-yl)-2,6-diazaspiro[3.4]octan-2-yl)-2-propen-1-one], the results for the IC50 (in assay [1]; at KRAS G12C; in assay [2]) were 402 nM, 106 nM and > 5000 nM, respectively.

For the origin of these results see US20240059703A1 (AMGEN INC., priority 2021, published 2024).
